In the NIST ThermoML archive (doi:10.1021/je900882r):

Key:
[1] = refractive index (Na D-line) (dimensionless); mn = molality of the nth substance listed, in mol/kg; details: 298.15 K, 101 kPa, Liquid
[2] = cn = amount concentration of the nth substance listed, in mol/dm3; details: 298.15 K, 101 kPa, Liquid; for molar conductivity: Alternating current cell with electrodes; for viscosity: Capillary tube (Ostwald / Ubbelohde) method
[3] = mn = molality of the nth substance listed, in mol/kg; details: 298.15 K, 101 kPa, Liquid

CC(C)[C@H](N)C(=O)O [L-valine] + O
[1], Standard Abbe refractometry
Details | refractive index
m1 = 0.1173 | 1.3348
m1 = 0.1402 | 1.3353
m1 = 0.1894 | 1.3363
m1 = 0.2512 | 1.3375
m1 = 0.2973 | 1.3384
m1 = 0.3211 | 1.3389
m1 = 0.3841 | 1.3401
m1 = 0.4378 | 1.341

Details | mass density [kg/m3] | molar conductivity [S·m2/mol] | viscosity [mPa·s]
[2], c1 = 0.0007166 | – | 0.0153 | –
[2], c1 = 0.001486 | – | 0.0148 | –
[2], c1 = 0.002275 | – | 0.0146 | –
[2], c1 = 0.003892 | – | 0.0145 | –
[2], c1 = 0.00566 | – | 0.0142 | –
[2], c1 = 0.007383 | – | 0.0139 | –
[2], c1 = 0.00904 | – | 0.0137 | –
[2], c1 = 0.0116 | – | 0.0135 | –
[2], c1 = 0.01431 | – | 0.0132 | –
[2], c1 = 0.01747 | – | 0.0129 | –
[2], c1 = 0.1173 | – | – | 0.892
[2], c1 = 0.1403 | – | – | 0.899
[2], c1 = 0.1898 | – | – | 0.906
[2], c1 = 0.2521 | – | – | 0.916
[2], c1 = 0.2987 | – | – | 0.938
[2], c1 = 0.3228 | – | – | 0.943
[2], c1 = 0.3867 | – | – | 0.958
[2], c1 = 0.4413 | – | – | 0.979
[3], m1 = 0.1173 | 1000.17 | – | –
[3], m1 = 0.1402 | 1000.77 | – | –
[3], m1 = 0.1894 | 1002.03 | – | –
[3], m1 = 0.2512 | 1003.59 | – | –
[3], m1 = 0.2973 | 1004.74 | – | –
[3], m1 = 0.3211 | 1005.32 | – | –
[3], m1 = 0.3841 | 1006.84 | – | –
[3], m1 = 0.4378 | 1008.11 | – | –

CCCCn1cc[n+](C)c1.[Br-] [1-butyl-3-methylimidazolium bromide] + O
Details | mass density, [3] [kg/m3] | refractive index, [1]
m1 = 0.0909 | 1001.54 | 1.3357
m1 = 0.0915 | 1001.77 | 1.3359
m1 = 0.097 | 1001.97 | 1.336
m1 = 0.1797 | 1005.97 | 1.3382
m1 = 0.1833 | 1006.34 | 1.3388
m1 = 0.185 | 1006.46 | 1.339
m1 = 0.267 | 1010.2 | 1.3407
m1 = 0.2863 | 1011.4 | 1.3416
m1 = 0.2866 | 1011.29 | 1.3414
m1 = 0.3496 | 1014.39 | 1.343
m1 = 0.3564 | 1014.36 | 1.3433
m1 = 0.3651 | 1014.07 | 1.3437

C[C@H](N)C(=O)O [(S)-2-aminopropanoic acid] + O
[1], Standard Abbe refractometry
Details | refractive index
m1 = 0.0533 | 1.3326
m1 = 0.091 | 1.333
m1 = 0.1496 | 1.3337
m1 = 0.1913 | 1.3342
m1 = 0.2516 | 1.335
m1 = 0.2926 | 1.3355
m1 = 0.3514 | 1.3362
m1 = 0.3799 | 1.3365
m1 = 0.4471 | 1.3374
m1 = 0.4827 | 1.3378

Details | mass density [kg/m3] | molar conductivity [S·m2/mol] | viscosity [mPa·s]
[2], c1 = 0.0007166 | – | 0.0153 | –
[2], c1 = 0.001486 | – | 0.0148 | –
[2], c1 = 0.002275 | – | 0.0146 | –
[2], c1 = 0.003892 | – | 0.0145 | –
[2], c1 = 0.00566 | – | 0.0142 | –
[2], c1 = 0.007383 | – | 0.0139 | –
[2], c1 = 0.00904 | – | 0.0137 | –
[2], c1 = 0.0116 | – | 0.0135 | –
[2], c1 = 0.01431 | – | 0.0132 | –
[2], c1 = 0.01747 | – | 0.0129 | –
[2], c1 = 0.02104 | – | 0.0126 | –
[2], c1 = 0.02475 | – | 0.0123 | –
[2], c1 = 0.0532 | – | – | 0.886
[2], c1 = 0.091 | – | – | 0.891
[2], c1 = 0.1498 | – | – | 0.897
[2], c1 = 0.1918 | – | – | 0.902
[2], c1 = 0.2526 | – | – | 0.912
[2], c1 = 0.2941 | – | – | 0.921
[2], c1 = 0.3537 | – | – | 0.928
[2], c1 = 0.3827 | – | – | 0.936
[2], c1 = 0.4512 | – | – | 0.951
[2], c1 = 0.4876 | – | – | 0.957
[3], m1 = 0.0499 | 998.55 | – | –
[3], m1 = 0.0849 | 999.6 | – | –
[3], m1 = 0.1397 | 1001.23 | – | –
[3], m1 = 0.1784 | 1002.37 | – | –
[3], m1 = 0.2346 | 1004.02 | – | –
[3], m1 = 0.2731 | 1005.13 | – | –
[3], m1 = 0.3275 | 1006.7 | – | –
[3], m1 = 0.3551 | 1007.46 | – | –
[3], m1 = 0.4168 | 1009.23 | – | –
[3], m1 = 0.4513 | 1010.16 | – | –

NCC(=O)O [2-aminoacetic acid] + O
[1], Standard Abbe refractometry
Details | refractive index
m1 = 0.0941 | 1.3333
m1 = 0.1492 | 1.3339
m1 = 0.1972 | 1.3345
m1 = 0.2611 | 1.3354
m1 = 0.2975 | 1.3359
m1 = 0.303 | 1.336
m1 = 0.3935 | 1.337
m1 = 0.4408 | 1.3376

Details | mass density [kg/m3] | molar conductivity [S·m2/mol] | viscosity [mPa·s]
[2], c1 = 0.0007166 | – | 0.0153 | –
[2], c1 = 0.001486 | – | 0.0148 | –
[2], c1 = 0.002275 | – | 0.0146 | –
[2], c1 = 0.003892 | – | 0.0145 | –
[2], c1 = 0.00566 | – | 0.0142 | –
[2], c1 = 0.007383 | – | 0.0139 | –
[2], c1 = 0.00904 | – | 0.0137 | –
[2], c1 = 0.0116 | – | 0.0135 | –
[2], c1 = 0.01431 | – | 0.0132 | –
[2], c1 = 0.01747 | – | 0.0129 | –
[2], c1 = 0.02104 | – | 0.0126 | –
[2], c1 = 0.02475 | – | 0.0123 | –
[2], c1 = 0.052 | – | – | 0.881
[2], c1 = 0.0997 | – | – | 0.892
[2], c1 = 0.158 | – | – | 0.91
[2], c1 = 0.1999 | – | – | 0.92
[2], c1 = 0.2244 | – | – | 0.929
[2], c1 = 0.292 | – | – | 0.939
[2], c1 = 0.3289 | – | – | 0.945
[2], c1 = 0.4544 | – | – | 0.965
[2], c1 = 0.5246 | – | – | 0.98
[3], m1 = 0.0521 | 998.7 | – | –
[3], m1 = 0.0997 | 1000.21 | – | –
[3], m1 = 0.1577 | 1002.02 | – | –
[3], m1 = 0.1992 | 1003.32 | – | –
[3], m1 = 0.2235 | 1004.07 | – | –
[3], m1 = 0.2902 | 1006.11 | – | –
[3], m1 = 0.3266 | 1007.22 | – | –
[3], m1 = 0.4495 | 1010.93 | – | –
[3], m1 = 0.5179 | 1012.94 | – | –
